In one data set the test system is guinea pig atria. Briefly: Organ bath assay, isolated guinea pig atria (rate and force of contraction). Here is the method: Male guinea pigs, 3-4 weeks old, were killed by rapid cervical dislocation without induced anaesthesia. Then, the guinea pigs were dissected to isolate the atria which were immediately mounted vertically in an organ bath containing Krebs-Henseleit solution oxygenated with carbogen.
One gram tension was applied to the atria and the base line continuously adjusted until it was stable for 20 mins. The rate and force of contraction were recorded using Mac Lab equipment.
Test substances in DMSO were assayed to a maximum concentration of 50 μM at a final concentration of 2.5% of DMSO.

Data set [1] has as its system rabbit platelet-rich plasma. Kind of data set: Antiplatelet aggregation screen with arachidonic acid as substrate. The format is cell-based.
Data set [2] deals with brine shrimp (Artemia salina Leach). Kind of data set: Brine shrimp assay. The format is in vivo. The following applies: for LC50: 24 hours, 2% DMSO. An excerpt: Toxicity—Brine Shrimp Assay
The brine shrimp assay procedure determines LC50 values of active compounds. Activities of a broad range of known active compounds are manifested as toxicity to brine shrimp (Artemia salina Leach). There are many applications of the assay including analysis of toxic substances, anaesthetics, morphine-like substances and cocarcinogenicity of phorbol esters.
DMSO (dimethyl sulfoxide) was the solvent of choice because of its good solubilising properties and also because the substances used in the ATPase inhibition assays were already prepared with DMSO.
The method for testing solvent toxicity used was basically that reported by J L McLaughlin in Methods of Plant Biochemistry (1991), vol. 6 (K Hostettman, ed.), Academic Press, London, 1-32. DMSO solutions of the substances to be tested were added directly to the vials containing the brine shrimp. As the concentration of DMSO is that we wished to use was higher than the recommended 1% v/v testing of the toxicity of the DMSO was therefore necessary. The concentrations of DMSO tested on the shrimp, along with the results from the assay which was done in duplicate are listed below.
Brine shrimp toxicity was assayed, except for some minor modifications, according to the method of McLaughlin et al as reported in Brine Shrimp: A convenient bioassay for active plant constituents, B N Meyer, N R Ferrigni, J E Putnam, L B Jacobsen, D E Nichols and J L McLaughlin in Planta Medica (1982), 45, 31-34 and Crown gall tumours on potato discs and brine shrimp lethality: Two simple bioassays for higher plant screening and fractionation. J L McLaughlin. Methods of Plant Biochemistry (1991), vol. 6 (K Hostettman, ed.), Academic Press, London, 1-32. Ten shrimp were transferred to each of the vials and the volume adjusted to 4.9 mL. Each dose was performed in triplicate, including the control. In quick succession, the appropriate volume of additional DMSO for each dose, required to achieve a final concentration of 2%, was added before the appropriate volume of test solution. The vials were gently mixed and the time noted. After 24 hours, the number of survivors were counted and % mortality was determined. The test compounds were assayed at concentrations of 100 μM, 25 μM, 5 μM, 1 μM and 0.2 μM (and where appropriate concentrations of 0.04 μM and 0.008 μM).
The brine shrimp were able to survive without food in the vials over the 24 hour period and were therefore not fed.
The dose-response curves were constructed using the Sigmaplot computer program and the LC50 value was calculated from the intersection point of the curve and the 50% mortality line. The LC50 values were expressed in both μM and μg/mL.
For substances with low toxicity, the greater sign “>” indicated the highest concentration at which the assay was carried out as precipitation of the substances occurred above that concentration.

In a further data set the test system is left atrium guinea pig. Briefly: Cardiovascular and neuro-effector junction activities: left atrium, guinea pig. On the procedure: In later studies positive inotropic activity was observed as a 50% increase on driven guinea pig left atria at 10 μM.
No effect was observed on nerve stimulation in atria.
(§1) Therefore, further investigation of the physicochemical properties as well as mechanism(s) of action of these substances, including gingerols, is required in relation to cardiotonicity. The mode of action of gingerols as cardiotonic agents has been […] and it was proposed that they act by direct stimulation of the cardiac SR Ca^2+-ATPase. This may load extra calcium into the intracellular stores in the sarcoplasmic reticulum allowing more calcium to be released on stimulation of the heart resulting in increased cardiac contractility. […] The cardiotonic action of 1-(4-hydroxy-3-methoxyphenyl)dodecan-3-ol [3.93] was confirmed from independent studies, carried out at our request as part of our agreement with Johnson & Johnson Research Ltd (J&J), by Prof. James Angus from the University of Melbourne. […] A tachycardial effect of the substance on guinea pig atria was, however, observed at significant rate, 50-60% of isoprenaline Emax and the response was not α- or β-adrenoceptor mediated.
(§2) Cardiovascular and Neuro-effector Junction Activities of Gingerol Analogues

Data set [3] deals with capsaicin-sensitive DRG neuronal cells. Kind of data set: [Ca^2+]i transients in DRG neuronal cells in culture. The format is cell-based, rat. An excerpt: Effect of Gingerol Analogues Towards Rat Dorsal Root Ganglia
Capsaicin, the pungent component in peppers of the Capsicum genus, family Solanaceae, has the ability to excite a subset of sensory neurons, which include polymodal nociceptors and warm thermoceptors (Fitzgerald, 1983) by opening non-selective cation channels that are permeable to Na^+, K^+, and Ca^2+ (Bevan and Szolcsanyi, 1990). It has been shown that capsaicin evoked a concentration-dependent rise in [Ca^2+]i in cultured dorsal root ganglion neurons. The duration of the elevation of [Ca^2+]i depended on the concentration of capsaicin (Choleswinski, et al., 1993). In this investigation peak [Ca^2+]i transient measurements are used as a model for testing gingerol analogues.
DRG from neonatal (3-5 days old) rat or adult Sprague-Dawley rats were incubated in Hanks CMF saline with 0.05% collagenase and 0.25% trypsin for 25 min at 37° C. Individual cells were obtained by trituration with fire polished Pasteur pipettes of diminishing diameters. Neurones were isolated from the cell suspension in 30% Percoll and then plated on collagen coated coverslips or in 24-well plates, then cultured in neurobasal medium with B27 supplement, 50 ng/ml 2.5 S nerve growth factor, 2 mM 1-glutamine and 100 U/ml penicillin/streptomycin. Cultures were maintained at 37° C. with 5% CO2. 30% Percoll increases the percentage of capsaicin-sensitive DRG neurones up to 70%. For peak [Ca^2+]i transients measurements, cells on coverslips were incubated with 5 μM Fura-2 AM for 30 min at 37° C. The coverslips were then mounted on a chamber attached to a fast sample application perfusion system which allows changing solutions in the second range. Recordings were made on the stage of a Nikon Diaphot inverted microscope fitted with a Nikon 40×Fluo (NA 0.85) DL Ph3 or 40×Fluo (NA 1.3) oil objective. [Ca^2+]i was calculated from dual excitation wavelength (340/380 nm) fluorescence measurements following an intracellular calibration procedure by the Grynkiewicz equation, using MCID M2/M4 v.3.0 (Imaging Res. Inc.) software. Cells were continuously perfused with a solution consisting of 140 mM NaCl, 2 mM CaCl2, 5 mM KCl, 20 mM HEPES, 10 mM glucose, pH 7.4. To study KCl evoked depolarisation, 50 mM NaCl was replaced by equimolar KCl. Cytoplasmic localisation of Fura-2 was tested with the Mn^2+ quenching technique (Dedov and Roufogalis, 1998). All experiments were performed at room temperature (20-23° C.).
Typical changes in [Ca^2+]i upon depolarisation were evoked by 50 mM KCl and by application of 1 μM capsaicin; both were applied for 30 sec. Capsaicin-evoked peak [Ca^2+]i transients are characterised by a fast rise and long-steady state [Ca^2+]i clearance from the cytoplasm. In capsaicin-sensitive cells the half-time of cytoplasmic Ca^2+ clearance was proportional to the amplitudes of peak [Ca^2+]i transients.
To examine the effect of gingerol derivatives, one or several compounds in succession at a concentration of 10 μM were applied for 1 min to the DRG neuronal cells followed by washing out for 4 min with physiological solution. To the capsaicin-sensitive cells, 10 μM capsaicin and 50 mM KCl were applied, respectively, to confirm the viability of the cells. In addition, morphological appearances of the cells were also examined at the end of experiment. […]

For a further data set, the system named is right atrium guinea pig. Briefly: Cardiovascular and neuro-effector junction activities: right atrium, guinea pig. Particulars: 10^−7-3 × 10^−5 M; not blocked by praz., prop.
Description: as §1, §2

Another data set has as its system right atrium rat. Kind of data set: Cardiovascular and neuro-effector junction activities: right atrium, rat. Particulars: 3 × 10^−7-3 × 10^−6 M, with propranolol present.
Description: as §1, §2

The next data set relates to rat mesenteric artery. Kind of data set: Vasodilation on rat mesenteric artery. An excerpt: The proposed mechanism of neuropeptide release by 1-(4-hydroxy-3-methoxyphenyl)dodecan-3-ol, similar to that of capsaicin, was supported by studies in blood vessels. […] This contrasts with capsaicin which has similar activity in Guinea pig atria (force and rate) and relaxing rat mesenteric artery.

A further data set concerns cardiac Purkinje fibres. Briefly: Cardiac electrophysiology on Purkinje fibres. Set-up: species or system dog. The following applies: up to 10 μM. Here is the method: Cardiac Electrophysiological Activities of Gingerol and its Analogue
The basic cardiac electrophysiological properties were assessed using cardiac Purkinje fibres obtained from adult mongrel dogs.
Electrophysiology was carried out on dog heart purkinje fibre to test for potential arrhythmia. […] At high concentration (50 μM), however, [8]-gingerol reduced approximate 80% and 50% of action potential duration at 50% and 90% repolarisations respectively. Whereas the analogue reduced 75% and 30% respectively.

A further data set concerns left atrium rat. Kind of data set: Cardiovascular and neuro-effector junction activities: left atrium, rat. Particulars: 10^−7-3 × 10^−5 M.
Description: as §1, §2

The test system of a further data set is diaphragm rat. Kind of data set: Cardiovascular and neuro-effector junction activities: diaphragm, rat. The following applies: 10^−5 M.
Description: as §1, §2

A further data set concerns vas deferens rat. Kind of data set: Cardiovascular and neuro-effector junction activities: vas deferens, rat. The following applies: 10^−4 M.
Description: as §1, §2

The subject of data set [4] is brine shrimp (Artemia salina Leach). The following applies: in vivo; cited from earlier work.

Where two headings read alike, the source gives them in different places.

Take `CCCCCCCCCC(O)CCc1ccc(O)c(OC)c1` (stereo not shown) [1-(4-hydroxy-3-methoxyphenyl)dodecan-3-ol]: the “potency of one enantiomer relative to the other in increasing force of contraction in guinea pig atria” value in the data set with guinea pig atria stood at 100 fold. Moreover, in the data set on guinea pig atria (@ 10 (μM)), the “FORCE OF CONTRACT^n, ↑ increase” value is recorded as “↑108% @ 10”. For the same molecule, in data set [1], the “platelet function via adenosine diphosphate or thromboxane A mechanisms” value is “did not affect”. Besides, the “antiplatelet aggregation potency relative to indomethacin” value in data set [1] (arachidonic acid as substrate, listed as 3-hydroxy-1-(4-hydroxy-3-methoxyphenyl)dodecane) was “three time more potent than the indomethacin reference compound”. Further, in data set [2] (in vivo), the “toxicity towards brine shrimp, in words” value is on record as “low toxicity”. Moreover, the “arrhythmia on guinea pig driven left atria” value in the data set with left atrium guinea pig (1 μM) is “followed by arrhythmia”. For the same molecule, in the data set on left atrium guinea pig (10^−6-3 × 10^−5 M), the “inotropic effect, % isopren. max., left atrium guinea pig” value is given as “˜20%”. In addition, the “inotropism, left atrium guinea pig” value in the data set with left atrium guinea pig (10^−6-3 × 10^−5 M (not in rat)) was “inotropic”. Moreover, the “evoked [Ca^2+]i transients in Ca^2+-free medium or with ruthenium red” value in data set [3] (Ca^2+-free medium or ruthenium red (1 μM)) is given as “abolished or greatly diminished”. Also, in the data set on right atrium guinea pig, the “effect on rate, right atrium guinea pig” value was “tachycardia”. Further, in the data set with right atrium rat, the “effect on rate, right atrium rat” value is on record as “tachycardia”. Further, in the data set with rat mesenteric artery, the “potency (EC50) for relaxation of mesenteric artery relative to inotropic effect in guinea pig atrium” value is reported as 100 fold. For the same molecule, the “relaxing vasopressin-contracted rat mesenteric small arteries” value in the data set on rat mesenteric artery (10^−8 to 10^−6 M, 200-300 μm diameter) is given as “very potent”.

As for `CCCCCCCC(O)CC(=O)c1ccc(O)c(OC)c1` (stereo not shown) [3-hydroxy-1-(4-hydroxy-3-methoxyphenyl)decan-1-one], in the data set with guinea pig atria (assayed to a maximum of 50 μM), the “FORCE OF CONTRACT^n (inotropic activity), result in words” value was “negative inotropic activity” and the “HEART RATE (chronotropic activity), result in words” value is reported as “negative chronotropic activity”. For the same molecule, the “effect on isoprenaline response, left atrium guinea pig” value with left atrium guinea pig (up to 30 μM) was “no effect”. Further, the “effect on rate of depolarization, amplitude and duration of action potential (50% and 90%)” value with cardiac Purkinje fibres (listed as 3-hydroxy-1-(4-hydroxy-3-methoxyphenyl)decanone) was “only a small effect”. For the same molecule, the “effect on rate of depolarization, amplitude and duration of action potential (50% and 90%)” value with cardiac Purkinje fibres (listed as 3.92) is given as “insignificant effect”. The “Peak [Ca^2+]i (Average ± SD)” value in data set [3] (10 μM applied for 1 min, 2 mM Ca^2+) came out at 0 nM. In addition, the “effect on left atrium rat” value in the data set with left atrium rat was “no change”. Moreover, the “effect on diaphragm rat” value with diaphragm rat is on record as “no effect”. In addition, the “effect on vas deferens rat” value with vas deferens rat is given as “no effect”.

One may read the LC50 as the concentration lethal to half of the exposed cells or organisms. Turning to `COc1cc([C@@H]2c3cc4c(cc3[C@H](O)[C@H]3COC(=O)[C@H]23)OCO4)cc(OC)c1OC` [podophyllotoxin, reference compound], the LC50 was 1.6 µg/mL in data set [2] and 3.8 µM in [2] (read-out: LC50). The “LC50 determined by Meyer et al. (1982)” value in data set [4] is “(2.4) μg/ml”.

The values are drawn from patent publication US6518315B1, “Medicinal uses of phenylaikanols and derivatives” (The University of Sydney, priority 1997, dated 2003).
